Measurements taken from patent US8815857B2 (Boehringer Ingelheim International GmbH, priority 2011, dated 2014).
Converted amounts (≈) assume the structure as drawn.

Tests used:
[1] = Assessment of solubility: HT solubility in pION buffer, UV spectrophotometry; conditions: kinetic from dmso stock
[2] = molecular target: T1, human soluble guanylate cyclase alpha 1 and beta 1 subunits (sGC) stably expressed in Chinese hamster ovary cells (Homo sapiens, UniProt Q02108+Q02153); assay: sGC cellular activator assay: cGMP in CHO cells expressing human sGC, preincubated with ODQ; format: cell-based; conditions: 40 microM ODQ preincubation, 30 min at room temperature, presence or absence of 50% human serum not given, read-out: EC50 nM, Activity of Compounds in Cellular Assay
T1 construct: expressed in transfected cells; host or cells: Chinese hamster ovary cells, stably transfected
T1 sequence (Q02108 1-690 partner): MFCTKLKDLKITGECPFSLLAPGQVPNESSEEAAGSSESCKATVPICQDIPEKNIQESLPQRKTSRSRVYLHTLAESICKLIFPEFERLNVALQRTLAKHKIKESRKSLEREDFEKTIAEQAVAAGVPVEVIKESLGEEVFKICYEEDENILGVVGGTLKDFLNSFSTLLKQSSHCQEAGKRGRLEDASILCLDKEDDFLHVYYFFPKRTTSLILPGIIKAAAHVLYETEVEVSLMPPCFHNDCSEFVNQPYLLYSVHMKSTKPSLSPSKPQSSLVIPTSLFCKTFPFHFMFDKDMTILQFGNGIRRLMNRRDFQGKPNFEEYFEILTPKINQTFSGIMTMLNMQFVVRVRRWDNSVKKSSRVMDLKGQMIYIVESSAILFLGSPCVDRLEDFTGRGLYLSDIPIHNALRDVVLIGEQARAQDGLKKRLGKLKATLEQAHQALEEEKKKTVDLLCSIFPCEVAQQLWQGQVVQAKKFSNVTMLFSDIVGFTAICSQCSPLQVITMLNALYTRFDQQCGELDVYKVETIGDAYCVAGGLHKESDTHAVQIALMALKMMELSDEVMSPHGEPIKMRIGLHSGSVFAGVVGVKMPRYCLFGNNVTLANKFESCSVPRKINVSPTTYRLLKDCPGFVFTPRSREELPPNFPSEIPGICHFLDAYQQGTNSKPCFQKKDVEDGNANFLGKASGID
T1 sequence (Q02153 1-619): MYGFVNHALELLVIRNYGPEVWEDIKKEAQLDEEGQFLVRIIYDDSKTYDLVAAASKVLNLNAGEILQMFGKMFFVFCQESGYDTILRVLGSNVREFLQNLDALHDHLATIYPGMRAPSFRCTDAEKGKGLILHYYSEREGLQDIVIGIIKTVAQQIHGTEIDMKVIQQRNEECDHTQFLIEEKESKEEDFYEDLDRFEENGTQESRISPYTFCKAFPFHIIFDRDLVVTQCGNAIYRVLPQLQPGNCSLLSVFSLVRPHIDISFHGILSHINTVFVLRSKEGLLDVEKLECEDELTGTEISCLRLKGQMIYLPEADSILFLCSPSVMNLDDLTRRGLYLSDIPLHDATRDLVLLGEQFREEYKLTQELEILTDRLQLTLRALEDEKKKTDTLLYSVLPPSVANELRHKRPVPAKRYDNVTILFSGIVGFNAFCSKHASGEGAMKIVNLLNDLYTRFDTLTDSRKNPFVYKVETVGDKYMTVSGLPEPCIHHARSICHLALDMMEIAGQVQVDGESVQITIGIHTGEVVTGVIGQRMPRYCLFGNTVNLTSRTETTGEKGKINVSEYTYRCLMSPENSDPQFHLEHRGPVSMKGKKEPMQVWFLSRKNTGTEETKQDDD
Experimental: The sGC cellular activator assay is performed in the presence and absence of 50% human serum (HS) using Chinese hamster ovary cells that have been stably transfected to express the human soluble guanylate cyclase alpha 1 and beta 1 subunits (sGC). Cells are preincubated with 40 microM 1H-[1,2,4]oxadiazolo[4,3-a]quinoxalin-1-one (ODQ), an sGC inhibitor, for one hour in buffer containing 0.1% bovine serum albumin and 3-isobutyl-1-methylxanthine (IBMX). Concentration response curves are prepared for test compounds in DMSO. An intermediate dilution of the compounds is performed in either buffer containing IBMX or type AB HS containing IBMX. Diluted compounds are added to cells and they are incubated at room temperature for thirty minutes. cGMP is measured using a CisBio homogeneous time resolved fluorescence kit and the EC50 is calculated for each compound.

[3] = pH 6.8, aqueous buffer, Solubility (pH 6.8), pH 6.8
[4] = pION system solution buffer, pH 4.5, pH 4.5, aqueous buffer, Solubility (pH 4.5), pH 4.5 buffer, 16-19 h incubation, 1.0% DMSO
[5] = pION system solution buffer, pH 7.4, pH 7.4, aqueous buffer, Solubility (pH 7.4), pH 7.4 buffer, 16-19 h incubation, 1.0% DMSO

Row | Compound | solubility [1, 3] [µg/mL] | solubility [1, 4] [µg/mL] | solubility [1, 5] [µg/mL] | EC50 [2] [nM]
1 | Cc1ccc(OCc2ccc(C(=O)N3CCCCC3)cc2C)c(-c2nc(N3C[C@H]4CC[C@@H](C3)[C@H]4C(=O)O)sc2F)c1 [Compound 202, 3-[5-fluoro-4-[5-methyl-2-[[2-methyl-4-(piperidine-1-carbonyl)phenyl]methoxy]phenyl]thiazol-2-yl]-3-azabicyclo[3.2.1]octane-8(syn)-carboxylic acid] | 91 (≈ 158 µM) | 97 (≈ 168 µM) | > 59 | 310
2 | COCC1CN(Cc2ccc(COc3ccc(C)cc3-c3csc(N4C[C@H]5CC[C@@H](C4)[C@H]5C(=O)O)n3)c(C#N)c2)CCO1 (stereo partly shown) [Compound 212] | 32 (≈ 53.1 µM) | 11 (≈ 18.2 µM) | – | 100
3 | Cc1ccc(OCc2ccc(C(=O)N3CCCCC3)cc2C)c(-c2csc(N3C[C@H]4CC[C@@H](C3)[C@@]4(O)C(=O)O)n2)c1 [Compound 216, 8-hydroxy-3-(4-{5-methyl-2-[2-methyl-4-(piperidine-1-carbonyl)-benzyloxy]-phenyl}-thiazol-2-yl)-3-aza-bicyclo[3.2.1]octane-8(syn)-carboxylic acid] | 0.17 (≈ 0.295 µM) | < 0.1 | – | 390
4 | Cc1ccc(OCc2ccc(CN3CCOCC3)cc2C)c(-c2csc(N3CC[C@]4(C(=O)O)C[C@@H]4C3)n2)c1 [Compound 220] | 4.8 (≈ 8.99 µM) | 42 (≈ 78.7 µM) | 4 (≈ 7.49 µM) | 42
5 | Cc1ccc(OCc2ccc(C(=O)N3CCCCC3)cc2C)c(-c2csc(N3C[C@H]4CC[C@@H](C3)[C@@]4(F)C(=O)O)n2)c1 [Compound 221, 8-fluoro-3-(4-{5-methyl-2-[2-methyl-4-(piperidine-1-carbonyl)-benzyloxy]-phenyl}-thiazol-2-yl)-3-aza-bicyclo[3.2.1]octane-8(syn)-carboxylic acid] | 0.45 (≈ 0.779 µM) | < 0.1 | – | 75
6 | Cc1ccc(OCc2ccc(CN3CCS(=O)(=O)CC3)cc2C)c(-c2csc(N3CC[C@]4(C(=O)O)C[C@@H]4C3)n2)c1 [Compound 222] | 3.3 (≈ 5.67 µM) | < 0.1 | 30 (≈ 51.6 µM) | 110
7 | Cc1ccc(OCc2ccc(CN3CCS(=O)(=O)CC3)cc2C)c(-c2csc(N3CC[C@@]4(C(=O)O)C[C@H]4C3)n2)c1 [Compound 223] | 2.5 (≈ 4.3 µM) | < 0.1 | – | 5.2
8 | Cc1ccc(OCc2ccc(C(=O)N3CCOCC3)cc2C)c(-c2csc(N3CC[C@@]4(C(=O)O)C[C@H]4C3)n2)c1 [Compound 224] | 54 (≈ 98.6 µM) | < 0.1 | – | 5.8
9 | Cc1ccc(OCc2ccc(CN3CCN(C(=O)C4CC4)CC3)cc2C)c(-c2csc(N3CC[C@@]4(C(=O)O)C[C@H]4C3)n2)c1 [Compound 225] | 0.3 (≈ 0.499 µM) | 4.6 (≈ 7.66 µM) | – | 7.3
10 | Cc1ccc(OCc2ccc(C(=O)N3CCCCC3)cc2C)c(-c2csc(N3CC[C@@]4(C(=O)O)C[C@H]4C3)n2)c1 [Compound 226] | 15 (≈ 27.5 µM) | < 0.1 | – | 13
11 | Cc1ccc(OCc2ccc(CN3CCOC(CO)C3)cc2C#N)c(-c2csc(N3C[C@H]4CC[C@@H](C3)[C@H]4C(=O)O)n2)c1 (stereo partly shown) [Compound 227] | 62 (≈ 105 µM) | 54 (≈ 91.7 µM) | – | 99
12 | Cc1ccc(OCc2ccc(CN3CCN(C(=O)C4CC4)CC3)cc2C)c(-c2csc(N3C[C@H]4CC[C@@H](C3)[C@H]4C(=O)O)n2)c1 [Compound 228] | 0.42 (≈ 0.683 µM) | 6.1 (≈ 9.92 µM) | – | 39
13 | Cc1ccc(OCc2ccc(C(=O)N3CCCCC3)cc2C)c(-c2csc(N3CCCC(C)(C(=O)O)CC3)n2)c1 (stereo not shown) [Compound 229] | 21 (≈ 37.4 µM) | 0.4 (≈ 0.712 µM) | – | 76
14 | Cc1ccc(OCc2ccc(CN3CCS(=O)(=O)CC3)cc2C)c(-c2csc(N3CCCC(C)(C(=O)O)CC3)n2)c1 (stereo not shown) [Compound 230] | 0.95 (≈ 1.59 µM) | < 0.1 | – | 120
15 | Cc1ccc(OCc2ccc(CN3C[C@@H]4C[C@H]3CO4)cc2C#N)c(-c2csc(N3C[C@H]4CC[C@@H](C3)[C@H]4C(=O)O)n2)c1 [Compound 232] | 26 (≈ 45.6 µM) | 46 (≈ 80.6 µM) | > 54 | 44
16 | Cc1ccc(OCc2ccc(CN3CCOCC3)cc2C)c(-c2csc(N3CCCC(C)(C(=O)O)CC3)n2)c1 (stereo not shown) [Compound 233] | 0.6 (≈ 1.09 µM) | 47 (≈ 85.5 µM) | – | 310
17 | Cc1ccc(OCc2ccc(CN3CCOC(C)C3)cc2C#N)c(-c2csc(N3C[C@H]4CC[C@@H](C3)[C@H]4C(=O)O)n2)c1 (stereo partly shown) [Compound 238] | 5.2 (≈ 9.08 µM) | 4.9 (≈ 8.56 µM) | – | 39
18 | Cc1ccc(OCc2ccc(C(=O)N3CCOCC3)cc2C)c(-c2csc(N3CC[C@@H](C(=O)O)[C@H]3C)n2)c1 [Compound 241] | 72 (≈ 134 µM) | 9.2 (≈ 17.2 µM) | – | 41
19 | Cc1ccc(OCc2ccc(CN3CCOCC3)cc2C)c(-c2csc(N3CC[C@@H](C(=O)O)[C@H]3C)n2)c1 [Compound 242] | 37 (≈ 70.9 µM) | 53 (≈ 102 µM) | – | 90
20 | Cc1ccc(OCc2ccc(C(=O)N3CCCCC3)cc2C)c(-c2csc(N3C[C@@H]4[C@H](C3)[C@@H]4C(=O)O)n2)c1 [Compound 243] | 61 (≈ 115 µM) | 1.2 (≈ 2.26 µM) | – | 180
21 | Cc1ccc(OCc2ccc(CN3CCS(=O)(=O)CC3)cc2C)c(-c2csc(N3C[C@@H]4[C@H](C3)[C@@H]4C(=O)O)n2)c1 [Compound 244] | 65 (≈ 114 µM) | 2.6 (≈ 4.58 µM) | – | 180
22 | Cc1ccc(OCc2ccc(CN3CCS(=O)(=O)CC3)cc2C)c(-c2csc(N3CC[C@@H](C(=O)O)[C@H]3C)n2)c1 [Compound 245] | 48 (≈ 84.2 µM) | 3.6 (≈ 6.32 µM) | – | 290
23 | Cc1ccc(OCc2ccc(CN3CCOCC3)cc2C)c(-c2csc(N3C[C@@H]4[C@H](C3)[C@@H]4C(=O)O)n2)c1 [Compound 246] | 54 (≈ 104 µM) | 62 (≈ 119 µM) | – | 340
24 | Cc1ccc(OCc2ccc(C(=O)N3CCOCC3)cc2C)c(-c2csc(N3C[C@@H]4[C@H](C3)[C@@H]4C(=O)O)n2)c1 [Compound 247] | 70 (≈ 131 µM) | 46 (≈ 86.2 µM) | – | 720
25 | Cc1ccc(OCc2ccc(C(=O)N3CCCCC3)cc2C)c(-c2csc(N3CC4(CC4C(=O)O)C3)n2)c1 (stereo not shown) [Compound 248] | 47 (≈ 88.4 µM) | < 0.1 | – | 110
26 | Cc1ccc(OCc2ccc(CN3CCN(C(=O)C4CC4)CC3)cc2C)c(-c2csc(N3CC(CC(=O)O)C3)n2)c1 [Compound 249] | 51 (≈ 88.7 µM) | 45 (≈ 78.3 µM) | – | 140
27 | CC[C@]1(C(=O)O)[C@@H]2CC[C@H]1CN(c1nc(-c3cc(C)ccc3OCc3ccc(C(=O)N4CCCCC4)cc3C)cs1)C2 [Compound 250, 8-ethyl-3-(4-{5-methyl-2-[2-methyl-4-(piperidine-1-carbonyl)-benzyloxy]-phenyl}-thiazole-2-yl)-3-aza-bicyclo[3.2.1]octane-8(syn)-carboxylic acid] | 13 (≈ 22.1 µM) | < 0.1 | – | 140
28 | Cc1ccc(OCc2ccc(C(=O)N3CCCCC3)cc2C)c(-c2csc(N3CC(CC(=O)O)C3)n2)c1 [Compound 251] | 56 (≈ 108 µM) | 0.15 (≈ 0.289 µM) | – | 240
